Measured values reported in patent US8642592B2, “Oxo-heterocyclically substituted alkyl carboxylic acids and use thereof” (Bayer Intellectual Property GmbH, priority 2009, dated 2014).

Columns and labels:
[1] = target: T1, sGC (Rattus norvegicus, UniProt P20595); assay: sGC-activating activity in the CHO reporter cell in vitro; assay type: cell-based
T1 construct: expressed in transfected cells; host or cells: CHO reporter cell line
T1 sequence (P20595 1-619): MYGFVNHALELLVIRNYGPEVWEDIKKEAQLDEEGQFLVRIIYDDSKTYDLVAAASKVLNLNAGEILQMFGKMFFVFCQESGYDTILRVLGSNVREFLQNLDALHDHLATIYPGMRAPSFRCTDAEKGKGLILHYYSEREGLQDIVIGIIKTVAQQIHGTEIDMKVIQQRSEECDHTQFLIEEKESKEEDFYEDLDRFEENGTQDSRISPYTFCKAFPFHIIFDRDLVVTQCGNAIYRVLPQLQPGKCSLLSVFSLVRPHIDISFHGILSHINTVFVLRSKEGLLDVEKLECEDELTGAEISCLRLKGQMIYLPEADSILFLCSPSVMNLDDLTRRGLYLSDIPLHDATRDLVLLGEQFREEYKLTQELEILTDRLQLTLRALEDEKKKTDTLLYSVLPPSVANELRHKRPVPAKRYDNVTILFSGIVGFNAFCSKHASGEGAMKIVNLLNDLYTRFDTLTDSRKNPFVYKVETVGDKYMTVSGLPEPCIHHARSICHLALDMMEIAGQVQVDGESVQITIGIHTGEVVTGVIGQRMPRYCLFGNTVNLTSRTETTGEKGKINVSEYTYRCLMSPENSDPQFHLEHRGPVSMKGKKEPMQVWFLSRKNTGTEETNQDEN
T1 sequence (P19686 1-690 partner): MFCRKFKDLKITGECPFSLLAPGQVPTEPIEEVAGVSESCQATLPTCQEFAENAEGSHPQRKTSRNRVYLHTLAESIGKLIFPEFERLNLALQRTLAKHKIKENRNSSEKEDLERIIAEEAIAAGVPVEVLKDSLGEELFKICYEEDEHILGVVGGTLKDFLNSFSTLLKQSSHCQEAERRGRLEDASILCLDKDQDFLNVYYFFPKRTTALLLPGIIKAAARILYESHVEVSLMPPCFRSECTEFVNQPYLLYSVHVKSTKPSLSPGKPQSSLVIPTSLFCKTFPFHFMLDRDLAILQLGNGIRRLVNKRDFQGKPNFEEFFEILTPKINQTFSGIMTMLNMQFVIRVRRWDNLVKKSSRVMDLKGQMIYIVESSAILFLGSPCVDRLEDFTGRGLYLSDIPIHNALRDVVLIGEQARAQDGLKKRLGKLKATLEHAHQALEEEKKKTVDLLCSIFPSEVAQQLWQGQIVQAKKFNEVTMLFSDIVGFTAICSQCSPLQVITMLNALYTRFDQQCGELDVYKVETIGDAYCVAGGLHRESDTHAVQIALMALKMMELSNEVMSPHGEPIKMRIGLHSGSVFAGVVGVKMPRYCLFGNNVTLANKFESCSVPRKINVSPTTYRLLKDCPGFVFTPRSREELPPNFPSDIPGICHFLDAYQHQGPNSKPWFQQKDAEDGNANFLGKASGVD
Procedure: The cellular action of the compounds according to the invention is determined at a recombinant guanylate cyclase reporter cell line, as described in F. Wunder et al., Anal. Biochem. 339, 104-112 (2005).

[2] = target: T2, Heme-containing sGC (Rattus norvegicus, UniProt P20595); assay: Stimulation of recombinant soluble guanylate cyclase in vitro, heme-containing enzyme; assay type: biochemical; conditions: 0 μM Example 1
T2 construct: made in house; host or cells: baculovirus/Sf9 insect cells
T2 sequence (P20595 1-619): T1 sequence (P20595 1-619)
T2 sequence (P19686 1-690 partner): T1 sequence (P19686 1-690 partner)
Text: Hoenicka, E. M. Becker, H. Apeler, T. Sirichoke, H. Schroeder, R. Gerzer and J.-P. Stasch, “Purified soluble guanylyl cyclase expressed in a baculovirus/Sf9 system: Stimulation by YC-1, nitric oxide, and carbon oxide”, J. Mol. Med. 77 (1999), 14-23. The heme-free guanylate cyclase is obtained by adding Tween 20 to the sample buffer (0.5% in the final concentration).
The activation of sGC by a test substance is reported as n-fold stimulation of the basal activity.

[3] = tested on: saphenous artery; assay: Vasorelaxant effect in vitro (phenylephrine-contracted artery rings); set-up: species or system Rabbits; conditions: Oryctolagus cuniculus; concentration reducing phenylephrine-induced contraction of rabbit saphenous artery rings by 50%
Procedure: Rabbits are anesthetized and sacrificed by intravenous injection of thiopental sodium (about 50 mg/kg) and exsanguinated. The saphenous artery is removed and divided into rings 3 mm wide. The rings are mounted singly on in each case a pair of triangular hooks open at the end and made of 0.3 mm-thick special wire (Remanium®). Each ring is placed under an initial tension in 5 ml organ baths with Krebs-Henseleit solution which is at 37° C., is gassed with carbogen and has the following composition: NaCl 119 mM; KCl 4.8 mM; CaCl2×2 H2O 1 mM; MgSO4×7 H2O 1.4 mM; KH2PO4 1.2 mM; NaHCO3 25 mM; glucose 10 mM; bovine serum albumin 0.001%. The force of contraction is detected with Statham UC2 cells, amplified and digitized via A/D converters (DAS-1802 HC, Keithley Instruments, Munich) and recorded in parallel on chart recorders. Contractions are induced by addition of phenylephrine.
After several (generally 4) control cycles, the substance to be investigated is added in each further run in increasing dosage, and the level of the contraction achieved under the influence of the test substance is compared with the level of the contraction reached in the last preceding run. The concentration necessary to reduce the contraction reached in the preceding control by 50% is calculated from this (IC50). The standard application volume is 5 μl. The proportion of DMSO in the bath solution corresponds to 0.1%.

[4] = target: T3, soluble guanylate cyclase (sGC) (Rattus norvegicus, UniProt P20595); assay: Stimulation of sGC enzyme activity (PPi/luciferase detection); assay type: biochemical; conditions: sGC enzyme in vitro; for EC50: read-out: EC50 (concentration at 50% of maximum efficacy), activating action at the sGC enzyme
T3 construct: made in house; host or cells: baculovirus/Sf9 insect cells
T3 sequence (P20595 1-619): T1 sequence (P20595 1-619)
T3 sequence (P19686 1-690 partner): T1 sequence (P19686 1-690 partner)
Procedure: Soluble guanylate cyclase (sGC) converts on stimulation GTP into cGMP and pyrophosphate (PPi). PPi is detected with the aid of the assay described below. The signal produced in the assay increases as the reaction progresses and serves as a measure of the sGC enzyme activity under the given stimulation.
To carry out the assay, 29 μl of enzyme solution [0-10 nM soluble guanylate cyclase (prepared according to Honicka et al., J. Mol. Med. 77, 14-23 (1999)) in 50 mM TEA, 2 mM MgCl2, 0.1% BSA (fraction V), 0.005% Brij®, pH 7.5] are initially introduced into a microplate, and 1 μl of the substance to be tested (as a serially diluted solution in DMSO) is added. The mixture is incubated at room temperature for 10 min. Then 20 μl of detection mix [1.2 nM Firefly Luciferase (Photinus pyralis luciferase, Promega), 29 μM dehydroluciferin (prepared according to Bitler & McElroy, Arch. Biochem. Biophys. 72, 358 (1957)), 122 μM luciferin (Promega), 153 μM ATP (Sigma) and 0.4 mM DTT (Sigma) in 50 mM TEA, 2 mM MgCl2, 0.1% BSA (fraction V), 0.005% Brij®, pH 7.5] are added. The enzyme reaction is started by adding 20 μl of substrate solution [1.25 mM guanosine 5′-triphosphate (Sigma) in 50 mM TEA, 2 mM MgCl2, 0.1% BSA (fraction V), 0.005% Brij®, pH 7.5] and measured continuously in a luminometer. The extent of the stimulation by the substance to be tested can be determined relative to the signal of the unstimulated reaction.
The activation of heme-free guanylate cyclase is examined by addition of 25 μM of 1H-1,2,4-oxadiazolo[4,3-a]quinoxalin-1-one (ODQ) to the enzyme solution and subsequent incubation for 30 minutes and compared to the stimulation of the native enzyme.

Row | Structure (SMILES) | MEC (minimum effective concentration), sGC-activating activity in the CHO reporter cell [1] [nM] | MEC (minimum effective concentration), activating action at the sGC enzyme [4] [nM] | EC50 [4] [nM] | further results
1 | CC(CCCCNC(=O)C(c1ccc(CN2N=C(c3ccccc3)OCC2=O)cc1)C1CCCC1)C(=O)O (single isomer, unassigned; (+)) [Example 10, (+)-6-{[2-cyclopentyl-2-{4-[(5-oxo-2-phenyl-5,6-dihydro-4H-1,3,4-oxadiazin-4-yl)methyl]phenyl}-acetyl]amino}-2-methylhexanoic acid] | 100 | – | – | –
2 | O=c1onc2cnc3ccccc3n12 [ODQ, 1H-1,2,4-oxadiazolo-(4,3a)-quinoxalin-1-one, reference compound] | – | – | – | Stimulation (n-fold) of heme-containing sGC by ODQ alone ([2]; 10 μM ODQ): 3.0 n-fold
3 | CCC(C)C(C(=O)NCCCCC1(C(=O)O)CC1)c1ccc(CN2N=C(c3ccccc3)OCC2=O)cc1 (single isomer, unassigned; (+)) [Example 5, (+)-1-(4-{[3-methyl-2-{4-[(5-oxo-2-phenyl-5,6-dihydro-4H-1,3,4-oxadiazin-4-yl)methyl]phenyl}-pentanoyl]amino}butyl)cyclopropanecarboxylic acid] | 6.5 | 58 | 1500 | IC50 [3]: 297 nM
4 | CCN(CC)[N+]([O-])=NO [DEA/NO, 2-(N,N-diethylamino)diazenolate 2-oxide, reference compound] | – | – | – | Stimulation (n-fold) of heme-containing sGC by DEA/NO alone ([2]; 0.1 μM DEA/NO): 22.2 n-fold
5 | CC(CCCCNC(=O)C(c1ccc(CN2N=C(c3ccccc3)OCC2=O)cc1)C1CCCC1)C(=O)O (single isomer, unassigned; (+)) [Example 11, (+)-6-{[2-cyclopentyl-2-{4-[(5-oxo-2-phenyl-5,6-dihydro-4H-1,3,4-oxadiazin-4-yl)methyl]phenyl}-acetyl]amino}-2-methylhexanoic acid] | 100 | – | – | –
6 | O=C(NC/C=C/CC1(C(=O)O)CC1)C(c1ccc(CN2N=C(c3ccccc3)OCC2=O)cc1)C1CCCC1 (single isomer, unassigned; (-)) [Example 15] | 20 | – | – | –

Second part, led by results:

Row | MEC (minimum effective concentration), sGC-activating activity in the CHO reporter cell [1] [nM] | MEC (minimum effective concentration), activating action at the sGC enzyme [4] [nM] | EC50 [4] [nM] | Structure (SMILES) | further results
7 | 30 | – | – | O=C(O)CC1(CCCNC(=O)C(c2ccc(CN3N=C(c4ccccc4)OCC3=O)cc2)C2CCCC2)CC1 (stereo not drawn) [Example 18, (1-{3-[(Cyclopentyl{4-[(5-oxo-2-phenyl-5,6-dihydro-4H-1,3,4-oxadiazin-4-yl)methyl]phenyl}-acetyl)amino]propyl}cyclopropyl)acetic Acid] | –
8 | 1 | 5.5 | 184 | CC(C(C(=O)NCCCCC1(C(=O)O)CC1)c1ccc(CN2N=C(c3ccccc3)OCC2=O)cc1)C(F)(F)F (stereo not drawn) [Example 24, 1-{4-[(4,4,4-trifluoro-3-methyl-2-{4-[(5-oxo-2-phenyl-5,6-dihydro-4H-1,3,4-oxadiazin-4-yl)methyl]-phenyl}-butanoyl)amino]butyl}cyclopropanecarboxylic acid] | –
9 | 3 | 13 | 650 | O=C(NCCCCC1(C(=O)O)CC1)C(c1ccc(Cn2nc(-c3ccccc3)ccc2=O)cc1)C1CCCC1 (stereo not drawn) [Example 20] | IC50 [3]: 70 nM
10 | 100 | – | – | O=C(O)CCCCCNC(=O)C(c1ccc(CN2N=C(c3ccccc3)OCC2=O)cc1)C1CCCC1 (stereo not drawn) [Example 19, 6-[(Cyclopentyl{4-[(5-oxo-2-phenyl-5,6-dihydro-4H-1,3,4-oxadiazin-4-yl)methyl]phenyl}acetyl)-amino]hexanoic Acid] | –
